The target in the first assay is T1, GCase (Homo sapiens, UniProt P04062).
T1 construct: endogenous in cells; host or cells: HeLa cells
T1 sequence (P04062 40-536): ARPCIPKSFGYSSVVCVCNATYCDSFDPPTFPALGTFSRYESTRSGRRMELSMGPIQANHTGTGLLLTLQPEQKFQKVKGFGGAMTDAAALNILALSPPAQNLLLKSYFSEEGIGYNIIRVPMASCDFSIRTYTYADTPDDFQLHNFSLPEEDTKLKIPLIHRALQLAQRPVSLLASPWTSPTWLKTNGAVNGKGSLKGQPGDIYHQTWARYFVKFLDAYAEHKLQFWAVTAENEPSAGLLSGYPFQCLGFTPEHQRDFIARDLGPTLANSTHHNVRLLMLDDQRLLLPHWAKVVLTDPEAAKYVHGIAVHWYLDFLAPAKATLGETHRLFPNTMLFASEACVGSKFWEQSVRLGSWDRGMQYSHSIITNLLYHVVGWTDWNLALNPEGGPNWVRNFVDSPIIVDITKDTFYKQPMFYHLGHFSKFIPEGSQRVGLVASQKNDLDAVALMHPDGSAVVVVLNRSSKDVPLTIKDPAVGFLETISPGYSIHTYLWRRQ
The assay is described as follows: activation of GCase in a live cell PFB assay in HELA cells. The conditions noted are these: EC50 given as range classes. It counts as cell-based. The protocol: Exemplary compounds were evaluated for activation of GCase in a live cell PFB assay in HELA cells (essentially as described in Ysselstein et al., “LRRK2 kinase activity regulates lysosomal glucocerebrosidase in neurons derived from Parkinson's disease patients” Nature Communications (2019) 10:5570). […] EC50 ranges: A: <10 μM; B: >10-50 μM; C: >50-100 μM; D: >100 μM.
In the case of `FC(F)(F)c1cc(N2CC3(CCN(c4cncc(-c5nnc(C(F)(F)F)o5)n4)C3)C2)ccn1` [Cmpd 1024], the EC50 (as a rule, the concentration giving half of the maximal effect) lay within 50 to 100 µM. `FC(F)(F)c1ncc(N2CC3(CCN(c4cncc(-c5nnc(C(F)(F)F)s5)n4)C3)C2)cn1` [Cmpd 1025] returned an EC50 of less than 10 µM. Still for that read-out and setting: the result for `FC(F)(F)c1ncc(N2CC3(CCN(c4cncc(-c5nnc(C(F)(F)F)o5)n4)C3)C2)cn1` [Cmpd 1026] reads 50 to 100 µM; that for `FC(F)(F)c1cc(N2CC3(CCN(c4cncc(-c5nccs5)n4)C3)C2)ccn1` [Cmpd 1027], 10 to 50 µM; that for `FC(F)(F)c1cc(N2CC3(CCN(c4cncc(-c5ncc(C(F)(F)F)s5)n4)C3)C2)ccn1` [Cmpd 1028], 10 to 50 µM. For `FC(F)(F)c1cc(N2CC3(CCN(c4cncc(-c5cncs5)n4)C3)C2)ccn1` [Cmpd 1029], the EC50 is less than 10 µM. Same read-out and setting: the result for `CC(C)c1cnc(C(F)(F)F)cc1N1CC2(CCN(c3cnc4cnn(CC(F)F)c4n3)C2)C1` [Cmpd 1030] reads less than 10 µM. Still for that read-out and setting: the result for `CCCc1cnc(C(F)(F)F)cc1N1CC2(CCN(c3cnc4cnn(CC(F)F)c4n3)C2)C1` [Cmpd 1031] reads less than 10 µM. As to `CCc1cnc(C(F)(F)F)cc1N1CC2(CCN(c3cnc4cnn(CC(F)F)c4n3)C2)C1` [Cmpd 1032], the EC50 was less than 10 µM. The same measure, in the same setting: the same measure for `FC(F)(F)CCn1ncc2ncc(N3CCC4(CN(c5ccnc(C(F)(F)F)c5)C4)C3)nc21` [Cmpd 1033]: less than 10 µM.

The assay is the same for the next values; noted with them: activation of GCase, EC50 ranges.
With `FC(F)(F)OCCn1ncc2ncc(N3CCC4(CN(c5ccnc(C(F)(F)F)c5)C4)C3)nc21` [Cmpd 1034], the 50% effective concentration (EC50) was less than 10 µM. For `Cc1nc2cnn(CC(F)F)c2nc1N1CCC2(CN(c3ccnc(C(F)(F)F)c3)C2)C1` [Cmpd 1035], the EC50 was less than 10 µM. In turn, `Cc1nc2cnn(CC(F)F)c2nc1N1CCC2(CN(c3cnc(C(F)(F)F)nc3)C2)C1` [Cmpd 1036] gave an EC50 greater than 100 µM.

Consider `Cc1ncc(-c2nncs2)nc1N1CCC2(CN(c3ccnc(C(F)(F)F)c3)C2)C1` [Cmpd 1037], for which the concentration for a half-maximal effect (EC50) was less than 10 µM. Molecule `Cc1ncc(-c2nncs2)nc1N1CCC2(CN(c3cnc(C(F)(F)F)nc3)C2)C1` [Cmpd 1038] returned an EC50 of 10 to 50 µM.

In the case of `Cc1cnc(N2CC3(CCN(c4cnc5cnn(CC(F)F)c5n4)C3)C2)cn1` [Cmpd 1039], the EC50 lay in the range of 10 to 50 µM. `Cc1cc(N2CC3(CCN(c4cnc5cnn(C6COC6)c5n4)C3)C2)cc(C(F)(F)F)n1` [Cmpd 1040] had an EC50 of 10 to 50 µM. The same measure, in the same setting: the result for `Cc1c(N2CC3(CCN(c4cnc5cnn(C6COC6)c5n4)C3)C2)ccnc1C(F)(F)F` [Cmpd 1041] reads greater than 100 µM; that for `Cc1cnc(C(F)(F)F)cc1N1CC2(CCN(c3cnc4cnn(C5COC5)c4n3)C2)C1` [Cmpd 1042], greater than 100 µM. Still for that read-out and setting: the result for `CCn1c(-c2ccccc2)nc2ncc(N3CCC4(CN(c5ccnc(C(F)(F)F)c5)C4)C3)nc21` [Cmpd 1043] reads less than 10 µM.

In the case of `CCn1c(-c2cncc(F)c2)nc2ncc(N3CCC4(CN(c5ccnc(C(F)(F)F)c5)C4)C3)nc21` [Cmpd 1044], the EC50 is less than 10 µM. The same measure, in the same setting: the same measure for `CCn1c(-c2cncc(F)c2)nc2nc(N3CCC4(CN(c5ccnc(C(F)(F)F)c5)C4)C3)cnc21` [Cmpd 1045]: 50 to 100 µM.

Molecule `FC(F)Cn1ncc2ncc(N3CCC4(C3)CN(c3nnc(C(F)(F)F)s3)C4)nc21` [Cmpd 1046] displayed an EC50 of 10 to 50 µM.

`Cc1sc(N2CC3(CCN(c4cnc5cnn(CC(F)F)c5n4)C3)C2)nc1C(F)(F)F` [Cmpd 1047] displayed an EC50 greater than 100 µM.

The molecule `CC[C@H]1N(c2cnc(C(F)(F)F)nc2)C[C@]12CCN(c1cnc3cnn(CC(F)F)c3n1)C2` [Cmpd 1048] yielded an EC50 of 10 to 50 µM. Same read-out and setting: the same measure for `CC[C@@H]1N(c2cnc(C(F)(F)F)nc2)C[C@]12CCN(c1cnc3cnn(CC(F)F)c3n1)C2` [Cmpd 1049]: 10 to 50 µM; for `CCn1c(N2CCC3(CN(c4nnc(C(F)(F)F)s4)C3)C2)nc2c(cnn2CC(F)F)c1=O` [Cmpd 1050]: 10 to 50 µM; for `FC(F)Cn1ncc2cnc(N3CCC4(C3)CN(c3nnc(C(F)(F)F)s3)C4)nc21` [Cmpd 1051]: 50 to 100 µM. `Cc1nnc(-c2cncc(N3CCC4(CN(c5ccnc(C(F)(F)F)c5)C4)C3)n2)s1` [Cmpd 1052] had an EC50 of less than 10 µM. Consider `Cc1nc(N2CCC3(CCN(c4nc5c(cnn5CC(F)F)c(=O)n4C)CC3)C2)cc(C(F)(F)F)n1` [Cmpd 1053], for which the EC50 was less than 10 µM. `Cn1c(N2CCC3(CCN(c4ccc(C(F)(F)F)nc4)C3)CC2)nc2c(cnn2CC(F)F)c1=O` [Cmpd 1054] registered a 50% effective concentration (EC50) of less than 10 µM. Same read-out and setting: the result for `FC(F)(F)c1cc(N2CCC3(CCN(c4cnc5cnn(C6COC6)c5n4)CC3)C2)cnn1` [Cmpd 1055] reads less than 10 µM. The same measure, in the same setting: the same measure for `Cc1nc(C(F)(F)F)ncc1N1CCC2(CCN(c3cnc4cnn(C5COC5)c4n3)CC2)C1` [Cmpd 1056]: 10 to 50 µM; for `Cn1c(N2CCC3(CCN(c4nccc(C(F)(F)F)n4)C3)CC2)nc2c(cnn2C2COC2)c1=O` [Cmpd 1057]: 10 to 50 µM; for `Cn1c(N2CCC3(CCN(c4ncc(C(F)(F)F)cn4)C3)CC2)nc2c(cnn2C2COC2)c1=O` [Cmpd 1058]: 10 to 50 µM. The same measure, in the same setting: the result for `Cn1c(N2CCC3(CCN(c4ccnc(C(F)(F)F)c4)C3)CC2)nc2c(cnn2C2COC2)c1=O` [Cmpd 1059] reads less than 10 µM; that for `Cn1c(N2CCC3(CCN(c4ccnc(C(F)(F)F)n4)C3)CC2)nc2c(cnn2C2COC2)c1=O` [Cmpd 1060], less than 10 µM. As for `O=C([C@H]1CCn2c1nccc2=O)N1CCC2(C1)CN(c1ccnc(C(F)(F)F)c1)C2` [Cmpd 1061], the concentration giving a half-maximal response (EC50) lay within 50 to 100 µM. In turn, `FC(F)c1nnc(-c2cncc(N3CCC4(CN(c5ccnc(C(F)(F)F)c5)C4)C3)n2)s1` [Cmpd 1062] gave an EC50 of 10 to 50 µM. `Cc1nc(N2CC3(CCN(c4cnc5cnn(C6COC6)c5n4)C3)C2)cc(C(F)(F)F)n1` [Cmpd 1063] showed an EC50 of 10 to 50 µM.

`CCc1nn(CC(F)F)c2nc(N3CCC4(CN(c5cc(C(F)(F)F)nc(C)n5)C4)C3)cnc12` [Cmpd 1064] came in with an EC50 of 10 to 50 µM.

In turn, `CCc1nn(C2COC2)c2nc(N3CCC4(CN(c5cc(C(F)(F)F)nc(C)n5)C4)C3)cnc12` [Cmpd 1065] showed an EC50 of 10 to 50 µM. The molecule `CCc1nn(CC(F)F)c2nc(N3CCC4(CN(c5cc(C(F)(F)F)nc(C)n5)C4)C3)ncc12` [Cmpd 1066] returned an EC50 of 10 to 50 µM. `CCc1nn(C2COC2)c2nc(N3CCC4(CN(c5cc(C(F)(F)F)nc(C)n5)C4)C3)ncc12` [Cmpd 1067] displayed an EC50 of less than 10 µM. With `CCc1nn(CC(F)F)c2nc(N3CCC4(CN(c5ccnc(C(F)(F)F)c5)C4)C3)cnc12` [Cmpd 1068], the EC50 was 10 to 50 µM. The molecule `CCc1nn(C2COC2)c2nc(N3CCC4(CN(c5ccnc(C(F)(F)F)c5)C4)C3)cnc12` [Cmpd 1069] gave an EC50 of 10 to 50 µM. The same measure, in the same setting: the result for `CCc1nn(C2COC2)c2nc(N3CCC4(CN(c5ccnc(C(F)(F)F)c5)C4)C3)ncc12` [Cmpd 1070] reads less than 10 µM; that for `CCc1nn(CC(F)F)c2nc(N3CCC4(CN(c5ccnc(C(F)(F)F)c5)C4)C3)ncc12` [Cmpd 1071], less than 10 µM.

`FC(F)Cn1ncc2cnc(N3CCC4(CN(c5ccnc(C(F)(F)F)c5)C4)C3)cc21` [Cmpd 1072] came in with an EC50 of 10 to 50 µM. The molecule `FC(F)Cn1ncc2ccc(N3CCC4(CN(c5ccnc(C(F)(F)F)c5)C4)C3)nc21` [Cmpd 1073] had an EC50 of less than 10 µM.

In turn, `CCn1c(=O)n(CC(F)F)c2nc(N3CCC4(CN(c5cc(C(F)(F)F)nc(C)n5)C4)C3)cnc21` [Cmpd 1074] registered a concentration for a half-maximal effect (EC50) of less than 10 µM.
